Legend:
[1] = tested on: human iPS cells (1231A3 strain); assay: Neural tissue / neuroepithelium formation in cell aggregates, bright field observation; format: cell-based; conditions: day 20
Procedure: The above human iPS cells were treated with the cell dispersion solution by using TrypLE Select (Life Technologies), further dispersed into single cells by pipetting operation, and the above human iPS cells dispersed into single cells were suspended in 100 μl of a serum-free medium at 1.2×10^4 cells per well of a non-cell-adhesive 96-well culture plate ([…], manufactured by SUMITOMO BAKELITE), and subjected to suspension culturing at 37° C., 5% CO2. As the serum-free medium (gfCDM+KSR) therefor, a serum-free medium which is a 1:1 mixture of F-12 medium and IMDM medium supplemented with 10% KSR, 450 μM 1-monothioglycerol, 1× Chemically defined lipid concentrate was used. At the time of the start of suspension culturing (day 0 after the start of suspension culturing, start of step 2), Y27632 (final concentration 20 μM) was added to the above serum-free medium. By day 2 after the start of suspension culturing, cell aggregates were formed under both conditions with preconditioning and conditions without preconditioning (step 2 completed, step 3 start). On day 3 after the start of suspension culturing, a serum-free medium (50 μl) free of Y27632 was added. On day 6 or later after the start of suspension culturing, a half amount of the medium was changed to the above serum-free medium free of Y27632 once per 2-4 days. In the half-medium change operation, a half volume, namely 75 μl, of the medium in the culture vessel was discarded, the above fresh serum-free medium (75 μl) was added to make the total medium amount 150 μl. […]
At the time of the start of suspension culturing (day 0 after the start of suspension culturing, start of step 2), the cells were cultured under the following 2 conditions including condition 1 and condition 2. As condition 1(+SAG), at the time of the start of suspension culturing, Y27632 (final concentration 20 μM) and SAG (Shh signal transduction pathway activating substance, 300 nM) were added to the above serum-free medium. As condition 2(−SAG), at the time of the start of suspension culturing, Y27632 (final concentration 20 μM) was added to the above serum-free medium and SAG was not added. By day 2 after the start of suspension culturing, cell aggregates were formed (step 2 completed, step 3 start) under both conditions. On day 3 after the start of suspension culturing, a medium (50 μl) free of Y27632, SAG and containing human recombinant BMP4 (manufactured by R&D) was added such that the final concentration of exogenous human recombinant BMP4 was 1.5 nM (55 ng/ml). On day 6 after the start of suspension culturing, a half amount of the medium was changed with a serum-free medium free of Y27632, SAG and human recombinant BMP4. Thereafter, a half amount of the medium was changed, once every 2-4 days, with the above serum-free medium free of Y27632, SAG, and human recombinant BMP4.
The thus-prepared cells were subjected to bright field observation on day 18 after the start of suspension culturing under an inverted microscope (KEYENCE) (FIG. 15).
At the time of the start of suspension culturing (day 0 after the start of suspension culturing, start of step 2), the cells were cultured under the following 2 conditions including condition 1 and condition 2. As condition 1(+SAG), at the time of the start of suspension culturing, Y27632 (final concentration 20 μM) and SAG (Shh signal transduction pathway activating substance, final concentration 30 nM) were added to the above serum-free medium. As condition 2(−SAG), at the time of the start of suspension culturing, Y27632 (final concentration 20 μM) was added to the above serum-free medium and SAG was not added. By day 2 after the start of suspension culturing, cell aggregates were formed under both conditions (step 2 completed, step 3 start). […]

[2] = tested on: human iPS cells (1231A3 strain); assay: Immunostaining of aggregate sections for retinal tissue markers Chx10, Rx; format: cell-based; conditions: day 20
Procedure: Here, as step 3, culturing was performed under the following condition 1 and condition 2: Under condition 1(+BMP), on day 6 after the start of suspension culturing, the medium was changed to a medium free of Y27632 and containing human recombinant BMP4 (manufactured by R&D) such that the final concentration of exogenous human recombinant BMP4 was 1.5 nM (55 ng/ml) (FIG. 6B, D). Under condition 2(−BMP), on day 6 after the start of suspension culturing, a half amount of the medium was changed to a medium free of Y27632 and free of a BMP signal transduction pathway activating substance, without adding exogenous human recombinant BMP4 (FIG. 6A, C).
The thus-prepared cell aggregates on day 23 after the start of suspension culturing, which were produced from the above iPS cells that underwent a preconditioning treatment in step 1 as a starting material were fixed with 4% para-formaldehyde to prepare frozen sections. These frozen sections were immunostained for Chx10 (anti-Chx10 antibody, Exalpha, sheep), which is one of the retinal tissue markers, or Rx (anti-Rx antibody, Takara, guinea pig), which is one of the retinal tissue markers. These immunostained sections were observed under an inverted fluorescence microscope.
Cell aggregate were prepared according to the method described in Example 8 under conditions in which human iPS cells using StemFit medium as a feeder-free medium were used as a starting material, TGFβR inhibiting substance (SB431542) or BMPR inhibiting substance (LDN193189) was used in step 1, Shh signal transduction pathway activating substance was used in step 2, and BMP signal transduction pathway activating substance was added or not added in step 3. Neural tissues were formed in all the aggregates formed under all these conditions on day 23 after the start of suspension culturing. The above cell aggregates were fixed with 4% para-formaldehyde to prepare frozen sections. These frozen sections were immunostained for Chx10 (anti-Chx10 antibody, Exalpha, sheep), which is one of the retinal tissue markers, or Rx (anti-Rx antibody, Takara, guinea pig), which is one of the retinal tissue markers. These immunostained sections were observed under an fluorescence microscope. […] Furthermore, it was found from the analysis of serial sections that, in a neural tissue having a high (not less than 95%) proportion of Chx10-positive cells, Rx is also strongly positive (FIG. 9B, D, F, H).
Cell aggregates were prepared according to the method described in Example 10 by using, as a starting material, human iPS cells using Essential 8 medium as a feeder-free culturing, under conditions that TGFβR inhibiting substance (SB431542) are used in step 1, a Shh signal transduction pathway activating substance are used in step 2, and a BMP signal transduction pathway activating substance are added or are not added in step 3. The cell aggregates on day 18 after the start of suspension culturing were each fixed with 4% para-formaldehyde to prepare frozen section. These frozen sections were immunostained for Chx10 (anti-Chx10 antibody, Exalpha, sheep), which is one of the retinal tissue markers, or Rx (anti-Rx antibody, Takara, guinea pig), which is one of the retinal tissue markers, and observed under a fluorescence microscope. […] Furthermore, it was found from the analysis of serial sections that, in a neural tissue having a high (not less than 95%) proportion of Chx10-positive cells, Rx is also strongly positive. […]
A Cell aggregate was formed on day 18 after the start of suspension culturing under every conditions, and a neural tissue was formed (FIG. 14, upper panel). The above cell aggregates on day 18 after the start of suspension culturing were each fixed with 4% para-formaldehyde to prepare frozen section. […]

[3] = A83-01 0.5 μM 1 day in step 1, SAG 30 nM in step 2, BMP4 1.5 nM on day 3

Cc1cccc(-c2nn(C(=S)Nc3ccccc3)cc2-c2ccnc3ccccc23)n1 [A83-01, 3-(6-methyl-2-pyridinyl)-N-phenyl-4-(4-quinolinyl)-1H-pyrazole-1-carbothioamide]
cell aggregate and neural tissue formation [1, 3]: a neural tissue can be formed efficiently | cell aggregate and neural tissue formation ([1]; step 1 for 1 day: A83-01 0.5 μM alone or with SAG 300 nM, Purmorphamine 0.2 μM, or human recombinant Shh 50 ng/ml or 300 ng/ml, SAG 30 nM in step 2, BMP4 1.5 nM on day 3): a neural tissue can be produced efficiently | proportion of Chx10-positive cells in the total cells [2, 3]: about 20%

c1ccc2c(Oc3nc(Nc4ccc(N5CCOCC5)cc4)c4ncn(C5CCCCC5)c4n3)cccc2c1 [Purmorphamine, 9-cyclohexyl-N-[4-(4-morpholinyl)phenyl]-2-(1-naphthalenyloxy)-9H-purin-6-amine]
proportion of Chx10-positive cells in the total cells ([2]; A83-01 0.5 μM and SAG 300 nM in step 1, substance added in step 2 (SAG 30 nM, Purmorphamine 0.2 μM or human recombinant Shh 300 ng/ml), BMP4 1.5 nM on day 3): about 90%

Source: patent publication US12492373B2, “Production method for nerve tissue” (Racthera Co., Ltd., priority 2014, dated 2025)
